According to patent publication US4021449A (Kyowa Hakko Kogyo Co., Ltd., priority 1973, dated 1977):
Values after ≈ are worked out from the molar mass of the structure shown. Read-outs that look alike come from different tables or passages of the source.

Tests used:
[1] = Lipid-solubility: distribution ratio in butanol/water (1:1) (Table 2); type: physicochemical; details: in butanol/water (1:1) at 25° C
Description: In determining the lipid-solubility, the distribution ratio of the compound in water and butanol (1:1) is used as the standard.

Sarcoma 180 solid tumor = test: Anti-tumor activity against Sarcoma 180 solid tumor in mice (Table 3); type: in vivo; details: male dd-strain mice; one-sixth of LD50 i.p. once daily for 8 days; tumor weight on 10th day after transplantation
Experimental: Small portions of Sarcoma 180 solid tumor are transplanted subcutaneously into male dd-strain mice of about 20 g body weight. To each of 10 mice transplanted with tumor, a solution containing one-sixth of the LD50 value of the test compound is administered intraperitoneally once daily for 8 days starting on the day following the transplantation.
As a control, an equal volume of saline is injected in the same manner as above. On the 10th day after the transplantation, the mice are sacrificed and the weight of the tumor is measured. The ratio of average tumor weight of test animals to average tumor weight of control animals (T/C) is calculated.

[2] = tested on: Staphylococcus aureus ATCC 6538P; test: Antibacterial spectrum, minimum inhibitory concentration (Table 1); type: cell-based; details: ATCC6538P, read-out: Minimum Inhibitory Concentration, Staphylococcus aureus ATCC 6538P
[3] = known; derivatives of U.S. Pat. No. 3,514,452; cited from earlier work
in vivo = details: mouse, ip
Experimental: The acute toxicity (determined as LD50) is determined in mice by intraperitoneal injection.

[4] = tested on: Klebsiella penumoniae ATCC 10031; test: Antibacterial spectrum, minimum inhibitory concentration (Table 1); type: cell-based; details: ATCC10031, read-out: Minimum Inhibitory Concentration, Klebsiella penumoniae ATCC 10031
[5] = tested on: Streptococcus faecalis ATCC 10541; test: as above; type: cell-based
[6] = tested on: Gram-nagative and Gram-positive bacteria; details: known; cited from earlier work
tumor = details: known; cited from earlier work
[7] = Enterococcus faecalis, ATCC10541; read-out: Minimum Inhibitory Concentration, Streptococcus faecalis ATCC 10541

| SMILES | Distribution Ratio (butanol/water) [1] | Sarcoma 180 (T/C), ratio of average tumor weight of test animals to control animals (Sarcoma 180 solid tumor) | MIC [2] [µg/mL] | toxicity (in words) [3] | LD50 (in vivo) [mg/kg] | MIC [4] [µg/mL] | MIC [5, 7] [µg/mL] | MIC ([5]; Enterococcus faecalis, ATCC10541, read-out: Minimum Inhibitory Concentration, Streptococcus faecalis ATCC 10541) [µg/mL] | antibacterial activity (in words) [6] | anti-tumor activity (in words) (tumor) |
| --- | --- | --- | --- | --- | --- | --- | --- | --- | --- | --- |
| COC12C(COC(N)=O)C3=C(C(=O)C(C)=C(N)C3=O)N1CC1C2N1C(C)=O (stereo not drawn) [1a-acetyl mitomycin C, reference compound] | 3.749 | 0.48 | 1.56 (≈ 4.15 µM) | much less toxicity than mitomycin C | 23 | 0.782 (≈ 2.08 µM) | 6.25 (≈ 16.6 µM) | – | – | – |
| CCCCC/C=C\C/C=C\CCCCCCCC(=O)N1C2CN3C4=C(C(=O)C(N)=C(C)C4=O)C(COC(N)=O)C3(OC)C21 (stereo not drawn) [1a-linoleoyl mitomycin C, la-linoleoyl mitomycin C] | 9.665 | 0.35 | 0.782 (≈ 1.31 µM) | – | 110 | 12.5 (≈ 20.9 µM) | 0.782 (≈ 1.31 µM) | – | – | – |
| CCCCCCCC/C=C\CCCCCCCCCCCC(=O)N1C2CN3C4=C(C(=O)C(N)=C(C)C4=O)C(COC(N)=O)C3(OC)C21 (stereo not drawn) [la-ercoyl mitomycin C] | – | – | > 50 | – | 125 | 50 (≈ 76.3 µM) | – | > 50 | – | – |
| CCCC(=O)N1C2CN3C4=C(C(=O)C(N)=C(C)C4=O)C(COC(N)=O)C3(OC)C21 (stereo not drawn) [1a-butyryl mitomycin C, reference compound] | 4.402 | 0.59 | 3.12 (≈ 7.73 µM) | much less toxicity than mitomycin C | 19 | 3.12 (≈ 7.73 µM) | 25 (≈ 61.8 µM) | – | – | – |
| CCCCCC[C@@H](O)C/C=C\CCCCCCCC(=O)N1C2CN3C4=C(C(=O)C(N)=C(C)C4=O)C(COC(N)=O)C3(OC)C21 (stereo partly drawn) [1a-ricinoleoyl mitomycin C, la-ricinoleoyl mitomycin C] | – | 0.28 | 0.391 (≈ 0.636 µM) | – | 60 | 0.782 (≈ 1.27 µM) | 0.782 (≈ 1.27 µM) | – | – | – |
| CCCCCCCC/C=C\CCCCCCCC(=O)N1C2CN3C4=C(C(=O)C(N)=C(C)C4=O)C(COC(N)=O)C3(OC)C21 (stereo not drawn) [1a-oleoyl mitomycin C, la-oleoyl mitomycin C] | – | 0.31 | 0.782 (≈ 1.31 µM) | – | 105 | > 50 | 1.56 (≈ 2.61 µM) | – | – | – |
| CCCCCCCCCCCCCCCCCC(=O)N1C2CN3C4=C(C(=O)C(N)=C(C)C4=O)C(COC(N)=O)C3(OC)C21 (stereo not drawn) [1a-stearoyl mitomycin C, la-stearoyl mitomycin C] | – | – | > 50 | – | 75 | > 50 | > 50 | – | – | – |
| CCCCCC/C=C/CCCCCCCCCC(=O)N1[C@H]2[C@@H]1CN1C3=C(C(=O)C(N)=C(C)C3=O)[C@@H](COC(N)=O)[C@@]21OC [1a-vaccenoyl mitomycin C, la-vaccenoyl mitomycin C] | – | 0.34 | 0.782 (≈ 1.31 µM) | – | 105 | 50 (≈ 83.5 µM) | 3.12 (≈ 5.22 µM) | – | – | – |
| CCCCCCCCCCCC(=O)N1C2CN3C4=C(C(=O)C(N)=C(C)C4=O)C(COC(N)=O)C3(OC)C21 (stereo not drawn) [1a-lauroyl mitomycin C, la-lauroyl mitomycin C] | – | – | 0.391 (≈ 0.757 µM) | – | 44.5 | > 50 | > 50 | – | – | – |
| C/C=C/C(=O)N1C2CN3C4=C(C(=O)C(N)=C(C)C4=O)C(COC(N)=O)C3(OC)C21 (stereo not drawn) [1a-crotonoyl mitomycin C, reference compound] | – | 0.53 | 1.56 (≈ 3.88 µM) | – | 35.5 | 0.782 (≈ 1.94 µM) | 12.5 (≈ 31.1 µM) | – | – | – |
| CCCCCCCCCC(=O)N1C2CN3C4=C(C(=O)C(N)=C(C)C4=O)C(COC(N)=O)C3(OC)C21 (stereo not drawn) [1a-decanoyl mitomycin C, la-decanoyl mitomycin C] | 7.889 | – | 0.782 (≈ 1.6 µM) | – | 67.5 | 12.5 (≈ 25.6 µM) | > 50 | – | – | – |
| CC/C=C\C/C=C\C/C=C\CCCCCCCC(=O)N1[C@H]2[C@@H]1CN1C3=C(C(=O)C(N)=C(C)C3=O)[C@@H](COC(N)=O)[C@@]21OC [1a-linolenoyl mitomycin C, la-linolenoyl mitomycin C] | – | – | 0.782 (≈ 1.31 µM) | – | 95 | 6.25 (≈ 10.5 µM) | 1.56 (≈ 2.63 µM) | – | – | – |
| CCCCCCCCCCCCCC(=O)N1C2CN3C4=C(C(=O)C(N)=C(C)C4=O)C(COC(N)=O)C3(OC)C21 (stereo not drawn) [1a-myristoyl mitomycin C, la-myristoyl mitomycin C] | – | – | 0.391 (≈ 0.718 µM) | – | 45 | > 50 | 1.56 (≈ 2.87 µM) | – | – | – |
| CCCCCCCCCCCCCCCC(=O)N1C2CN3C4=C(C(=O)C(N)=C(C)C4=O)C(COC(N)=O)C3(OC)C21 (stereo not drawn) [1a-palmitoyl mitomycin C, la-palmitoyl mitomycin C] | – | – | 0.782 (≈ 1.37 µM) | – | 75 | > 50 | 0.782 (≈ 1.37 µM) | – | – | – |
| COC12C(COC(N)=O)C3=C(C(=O)C(C)=C(N)C3=O)N1CC1NC12 (single isomer, unassigned) [mitomycin C, reference compound] | – | – | 0.049 (≈ 0.147 µM) | very toxic | – | < 0.025 | 0.391 (≈ 1.17 µM) | – | very strong antibacterial activity against Gram-nagative and Gram-positive bacteria | remarkably strong anti-tumor activity |
